Results from patent US20190328691A1, “ANTIBIOTIC THERAPY” (Boulos & Cooper Pharmaceuticals Pty Ltd, priority 2015, published 2019).
Like-named read-outs stand apart in the source and are kept apart here.

How the values were obtained:
[1] = test system: Staphylococcus aureus (BAA-1717); test: Checkerboard combination / MIC assay with S. aureus BAA-1717 (MRSA); type: cell-based; conditions: for Effect of individual antibiotic combinations: S. aureus BAA-1717
Method: (§1) Colonies were suspended in PBS. The absorbance of each suspension was measured with a spectrophotometer, and then the suspension was adjusted to 1×10^6 CFU/mL. The testing inoculum was prepared within 20 minutes before adding to wells of the test plate. Final cellular density in the checkerboard assays was 5×10^5 CFU/mL.
(§2) The combination effect of antibacterial substances administered together was evaluated by an in vitro checkerboard combination method with Staphylococcus aureus (ATCC 29213) and Staphylococcus aureus (BAA-1717). Ramizol and Chlopam were tested alone in 11 points by two-fold serial titration and in combination with different commercial antibiotics which were tested in a 7-point titration alone and in combination with Ramizol and Chlopam using the checkerboard technique as recommended by the Clinical & Laboratory Standards Institute (CLSI. Methods for Dilution In Antimicrobial Susceptibility Tests for Bacteria That Grow Aerobically; Approved Standard-Eighth Edition. CLSI document M07-A8 (ISBN 1-56238-689-1). Vol. 29 No. 2. Clinical and Laboratory Standards Institute, USA, 2009). The commercial antibiotics were also tested alone. Twenty-four checkerboard tests were performed.
(§3) The starting concentration of Ramizol, Chlopam, and the commercial antibiotics was four fold of the MIC. The testing range for each combination was described in the following summary tables.
(§4) Compound dilutions of Ramizol and Chlopam were performed in 100% DMSO and the final DMSO concentration in all test wells was 2%. Growth control wells also included 2% DMSO. CLSI protocol was followed for medium, inoculum preparation, and endpoint reading. The commercial antibiotics were dissolved and diluted in the CLSI specified diluent. The final inoculum count for each strain was 5×10^5 CFU/mL.
Each test substance was dissolved and diluted in 100% DMSO or specified solvent. Each test substance dilution (2 μL) was added to 96 μL broth CAMHB. CAMHB seeded with S. aureus BAA-1717 at 1×10^6 CFU/mL (100 μL) was then added to the plate to generate a final cell count at 5×10^5 CFU/mL.
(§5) Assay plates were incubated and MIC endpoints were read as described in the MIC assay. FIC (Fraction Inhibitory Concentration) and FIC Index (FICI) values for each test condition and the average of FICI values of all pairwise combinations were calculated to determine if synergy or antagonism existed between the two substances. The FIC index was determined by calculating the sum of the ratios of MICs for both substances. Arithmetically, the FIC Index of a combination of Substance 1 and Substance 2 was defined as following: FICI=Σ[FIC(Substance 1)+FIC(Substance 2)]=[(MIC of Substance 1 in combination/MIC of Substance 1 alone)+(MIC of Substance 2 in combination/MIC of Substance 2 alone)]. Synergy is defined as the FICI (Σ)≤0.5; additivity as FICI (Σ)>0.5 to ≤1; indifference as FICI (Σ)>1 to ≤4; antagonism is defined as the FICI (Σ)>4 (Zinner and Blaser, J. Journal of Antimicrobial Chemotherapy (1986), 17, 1-5; Amin, et al BMC Complementary & Alternative Medicine (2015), 15, 59; Zuo, et al. Molecules (2011), 16, 9819-9826).

[2] = test system: Staphylococcus aureus (ATCC 29213); test: Checkerboard combination / MIC assay with S. aureus ATCC 29213; type: cell-based; conditions: S. aureus ATCC 29213; for MIC: Staphylococcus aureus, read-out: MIC of antibiotic alone
Method: as §1, §2, §3, §4
Cefepime, Daptomycin, Linezolid, Mupirocin, Oxacillin and Vancomycin were also tested alone. Each test substance was dissolved and diluted in 100% DMSO or specified solvent. Each test substance dilution (2 μL) was added to 96 μL broth CAMHB. CAMHB seeded with S. aureus ATCC 29213 at 1×10^6 CFU/mL (100 μL) was then added to the plate to generate a final cell count at 5×10^5 CFU/mL.
as §5

MIC of antibiotic in combination with Chlopam ([1]; Chlopam 0.001953 μg/mL, S. aureus ATCC BAA-1717): 1 µg/mL
MIC of antibiotic in combination with Chlopam ([1]; Chlopam 0.003906 μg/mL, S. aureus ATCC BAA-1717): 1 µg/mL
MIC of antibiotic in combination with Chlopam ([1]; Chlopam 0.0078125 μg/mL, S. aureus ATCC BAA-1717): 1 µg/mL
MIC of antibiotic in combination with Chlopam ([1]; Chlopam 0.015625 μg/mL, S. aureus ATCC BAA-1717): 1 µg/mL
MIC of antibiotic in combination with Ramizol ([1]; Ramizol 0.015625 μg/mL, S. aureus ATCC BAA-1717): 1 µg/mL
MIC of antibiotic in combination with Ramizol ([1]; Ramizol 0.03125 μg/mL, S. aureus ATCC BAA-1717): 1 µg/mL
MIC of antibiotic in combination with Ramizol ([1]; Ramizol 0.0625 μg/mL, S. aureus ATCC BAA-1717): 1 µg/mL
MIC of antibiotic in combination with Ramizol ([1]; Ramizol 0.125 μg/mL, S. aureus ATCC BAA-1717): 1 µg/mL
MIC ([1]; Staphylococcus aureus, ATCC BAA-1717 / BAA-1717, Table 4, checkerboard series with Chlopam, S. aureus ATCC BAA-1717, read-out: MIC of antibiotic alone): 1 µg/mL
MIC of antibiotic alone ([1]; Table 7, checkerboard series with Ramizol, S. aureus ATCC BAA-1717): 1 µg/mL
MIC of antibiotic in combination with Chlopam ([2]; Chlopam 0.003906 μg/mL): 2 µg/mL
MIC of antibiotic in combination with Chlopam ([2]; Chlopam 0.0078125 μg/mL): 2 µg/mL
MIC of antibiotic in combination with Chlopam ([2]; Chlopam 0.015625 μg/mL): 2 µg/mL
MIC of antibiotic in combination with Chlopam ([2]; Chlopam 0.125 μg/mL): 1 µg/mL
MIC of antibiotic in combination with Chlopam ([2]; Chlopam 0.25 μg/mL): 0.5 µg/mL
MIC of antibiotic in combination with Chlopam ([2]; Chlopam 0.5 μg/mL): 0.25 µg/mL
MIC of antibiotic in combination with Ramizol ([2]; Ramizol 0.015625 μg/mL): 4 µg/mL
MIC of antibiotic in combination with Ramizol ([2]; Ramizol 0.03125 μg/mL): 4 µg/mL
MIC of antibiotic in combination with Ramizol ([2]; Ramizol 0.0625 μg/mL): 4 µg/mL
MIC of antibiotic in combination with Ramizol ([2]; Ramizol 0.125 μg/mL): 4 µg/mL
MIC of antibiotic in combination with Ramizol ([2]; Ramizol 0.25 μg/mL): 4 µg/mL
MIC ([2]; ATCC29213, Table 4, checkerboard series with Chlopam): 2 µg/mL
MIC ([2]; ATCC29213, Table 7, checkerboard series with Ramizol): 4 µg/mL
SMILES: CC(=O)NC[C@H]1CN(c2ccc(N3CCOCC3)c(F)c2)C(=O)O1 [Linezolid]
FICI of combination with Chlopam ([1]; Chlopam 0.001953 μg/mL + labelled antibiotic at MIC of same cell, S. aureus ATCC BAA-1717): 1.0
FICI of combination with Chlopam ([1]; Chlopam 0.003906 μg/mL + labelled antibiotic at MIC of same cell, S. aureus ATCC BAA-1717): 1.0
FICI of combination with Chlopam ([1]; Chlopam 0.0078125 μg/mL + labelled antibiotic at MIC of same cell, S. aureus ATCC BAA-1717): 1.0
FICI of combination with Chlopam ([1]; Chlopam 0.015625 μg/mL + labelled antibiotic at MIC of same cell, S. aureus ATCC BAA-1717): 1.0
Effect of individual antibiotic combinations ([1]; Chlopam and Linezolid: 0.001953 and 1, 0.003901 and 1, 0.0078125 and 1, 0.015625 and 1 μg/mL): additive effect
FICI of combination with Ramizol ([1]; Ramizol 0.015625 μg/mL + labelled antibiotic at MIC of same cell, S. aureus ATCC BAA-1717): 1.0
FICI of combination with Ramizol ([1]; Ramizol 0.03125 μg/mL + labelled antibiotic at MIC of same cell, S. aureus ATCC BAA-1717): 1.0
FICI of combination with Ramizol ([1]; Ramizol 0.0625 μg/mL + labelled antibiotic at MIC of same cell, S. aureus ATCC BAA-1717): 1.0
FICI of combination with Ramizol ([1]; Ramizol 0.125 μg/mL + labelled antibiotic at MIC of same line, S. aureus ATCC BAA-1717): 1.0
Effect of individual antibiotic combinations ([1]; Ramizol and linezolid: 0.015625 and 1, 0.03125 and 1, 0.0625 and 1, 0.125 and 1 μg/mL): additive effect
mean FICI of combination with Chlopam ([1]; labelled antibiotic + Chlopam, mean of all pairwise combinations, S. aureus ATCC BAA-1717): 1.2
mean FICI of combination with Ramizol ([1]; labelled antibiotic + Ramizol, mean of all pairwise combinations, S. aureus ATCC BAA-1717): 1.2
FICI of combination with Chlopam ([2]; Chlopam 0.003906 μg/mL + labelled antibiotic at MIC of same cell): 1.0
FICI of combination with Chlopam ([2]; Chlopam 0.0078125 μg/mL + labelled antibiotic at MIC of same cell): 1.0
FICI of combination with Chlopam ([2]; Chlopam 0.015625 μg/mL + labelled antibiotic at MIC of same cell): 1.0
FICI of combination with Chlopam ([2]; Chlopam 0.125 μg/mL + labelled antibiotic at MIC of same line): 0.8
FICI of combination with Chlopam ([2]; Chlopam 0.25 μg/mL + labelled antibiotic at MIC of same cell): 0.8
FICI of combination with Chlopam ([2]; Chlopam 0.5 μg/mL + labelled antibiotic at MIC of same cell): 0.6
Effect of individual antibiotic combinations ([2]; Chlopam and Linezolid: 0.003901 and 2, 0.0078125 and 2, 0.015625 and 2, 0.125 and 1, 0.25 and 0.5, 0.5 and 0.25 μg/mL): additive effect
FICI of combination with Ramizol ([2]; Ramizol 0.015625 μg/mL + labelled antibiotic at MIC of same cell): 1.0
FICI of combination with Ramizol ([2]; Ramizol 0.03125 μg/mL + labelled antibiotic at MIC of same cell): 1.0
FICI of combination with Ramizol ([2]; Ramizol 0.0625 μg/mL + labelled antibiotic at MIC of same cell): 1.0
FICI of combination with Ramizol ([2]; Ramizol 0.125 μg/mL + labelled antibiotic at MIC of same cell): 1.0
FICI of combination with Ramizol ([2]; Ramizol 0.25 μg/mL + labelled antibiotic at MIC of same cell): 1.0
Effect of individual antibiotic combinations ([2]; Ramizol and linezolid: 0.015625 and 4, 0.03125 and 4, 0.0625 and 4, 0.125 and 4, 0.25 and 4 μg/mL): additive effect
Effect of the combinations with Chlopam (by mean FICI) ([2]; labelled antibiotic + Chlopam): additive effect
mean FICI of combination with Chlopam ([2]; labelled antibiotic + Chlopam, mean of all pairwise combinations): 0.9
mean FICI of combination with Ramizol ([2]; labelled antibiotic + Ramizol, mean of all pairwise combinations): 1.1
